Source: US9890138B2, “Diaminopyrimidine derivatives and processes for the preparation thereof” (YUHAN CORPORATION, priority 2011, dated 2018)
Counter-ions that a name gives are not always drawn.

Biological target: T1, human 5-HT4(a) (Homo sapiens, UniProt Q13639)
T1 construct: host or cells: GeneBlAzer HTR4-CRE-bla CHO-K1 cells
Assay: Evaluation of agonistic activity in CHO-K1 cells expressing human 5-HT4(a) (GeneBlAzer HTR4-CRE-bla CHO-K1, beta-lactamase reporter)
Type: cell-based
Details: CHO-K1 cells stably expressing human 5-HT4(a)
Outline: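 GeneBlAzer HTR4-CRE-bla CHO-K1 cells, 10^4/well overnight, exposed 5 h to compounds at 8 concentrations in medium with 1% DMSO in the added solution. β-lactamase substrate 2 h in dark; 410 nm excitation, 465/535 nm emission ratio; EC50 by non-linear regression.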

T1 sequence (Q13639 1-387 isoform Q13639-2): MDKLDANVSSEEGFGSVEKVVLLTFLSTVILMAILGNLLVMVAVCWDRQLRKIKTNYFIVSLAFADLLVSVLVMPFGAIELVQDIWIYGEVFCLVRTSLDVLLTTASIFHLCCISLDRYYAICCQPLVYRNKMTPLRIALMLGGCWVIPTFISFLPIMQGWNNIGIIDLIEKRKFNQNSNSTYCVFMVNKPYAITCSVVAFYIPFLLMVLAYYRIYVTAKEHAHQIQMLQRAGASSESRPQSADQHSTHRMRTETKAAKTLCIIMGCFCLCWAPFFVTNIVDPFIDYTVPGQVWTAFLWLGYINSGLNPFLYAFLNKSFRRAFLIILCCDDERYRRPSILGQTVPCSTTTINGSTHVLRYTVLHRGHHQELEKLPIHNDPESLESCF

| Compound | EC50 [nM] |
| --- | --- |
| C/C=C(\C)C(=O)N[C@H]1CCN(c2cc(CCC)nc(Nc3cccc(C#N)c3)n2)C1 [Example 149, (S,E)-N-{1-[2-(3-cyanophenylamino)-6-propylpyrimidin-4-yl]pyrrolidin-3-yl}-2-methylbut-2-enamide] | 0.277 |
| CCCc1cc(N2CCC[C@H]2C=O)nc(Nc2cccc(C#N)c2)n1 [Example 402, (S)-3-[4-(2-formylpyrrolidin-1-yl)-6-propylpyrimidin-2-ylamino]benzonitrile] | 0.236 |
| CCCc1cc(N2CC[C@H](N)C2)nc(Nc2ccc(F)cc2)n1 [Example 47, (S)-4-(3-aminopyrrolidin-1-yl)-N-(4-fluorophenyl)-6-propylpyrimidin-2-amine dihydrochloride] | 0.38 |
| (S)-3-amino-5-[4-(3-aminopyrrolidin-1-yl)-6-propylpyrimidin-2-amino]benzonitrile [Example 362] | 0.0021 |
| CCCc1cc(N2CC[C@H](NC(=O)C(C)(C)O)C2)nc(Nc2cccc(C#N)c2)n1 [Example 153, (S)-N-{1-[2-(3-cyanophenylamino)-6-propylpyrimidin-4-yl]pyrrolidin-3-yl}-2-hydroxy-2-methylpropanamide] | 0.228 |
| CCCCc1cc(N2CC[C@H](NC(=O)OC(C)(C)C)C2)nc(Nc2ccc(C)c(C#N)c2)n1 [Example 232, (S)-tert-butyl 1-[6-butyl-2-(3-cyano-4-methylphenylamino)pyrimidin-4-yl]pyrrolidin-3-ylcarbamate] | 0.13 |
| CCCc1cc(N2CCC[C@H]2C)nc(Nc2cccc(C#N)c2)n1 [Example 53, (R)-3-[4-(2-methylpyrrolidin-1-yl)-6-propylpyrimidin-2-ylamino]benzonitrile] | 0.098 |
| CCCc1cc(N2CCC[C@H]2C)nc(Nc2cccc(SC)c2)n1 [Example 314] | 0.18 |
| CCCc1cc(N2CC[C@H](NC3CCCCCCC3)C2)nc(Nc2cccc(C#N)c2)n1 [Example 141, (S)-3-{4-[3-(cyclooctylamino)pyrrolidin-1-yl]-6-propylpyrimidin-2-ylamino}benzonitrile] | 0.085 |
| CCCc1cc(N2CC[C@H](NCC)C2)nc(Nc2ccc(F)cc2)n1 [Example 18, (S)-4-[3-(ethylamino)pyrrolidin-1-yl]-N-(4-fluorophenyl)-6-propylpyrimidin-2-amine] | 0.14 |
| CCCc1cc(N2CCC[C@H]2C)nc(Nc2cccc([N+](=O)[O-])c2)n1 [Example 319] | 0.08 |
| CCCc1cc(N2CC[C@H](O)C2)nc(Nc2cccc(C#N)c2)n1 [Example 52, (S)-3-[4-(3-hydroxypyrrolidin-1-yl)-6-propylpyrimidin-2-ylamino]benzonitrile] | 0.33 |
| CCCNC[C@@H]1CCCN1c1cc(CCC)nc(Nc2cccc(C#N)c2)n1 [Example 406] | 0.402 |
| CCCc1cc(N2CC[C@H](NC(=O)COCc3ccccc3)C2)nc(Nc2cccc(C#N)c2)n1 [Example 158] | 0.436 |
| CCCc1cc(N2CCC(NC(C)=O)C2)nc(Nc2cccc(SC)c2)n1 (stereo not shown) [Example 305] | 0.18 |
| CCCc1cc(N2CCC[C@H]2CNCc2ccc(F)cc2)nc(Nc2cccc(C#N)c2)n1 [Example 405] | 0.399 |
| CCCc1cc(N2CC[C@H](NS(C)(=O)=O)C2)nc(Nc2cccc(C#N)c2)n1 [Example 125, (S)-N-{1-[2-(3-cyanophenylamino)-6-propylpyrimidin-4-yl]pyrrolidin-3-yl}methanesulfonamide] | 0.159 |
| CCCc1cc(N2CCC[C@H]2C)nc(Nc2ccc(C)c(N)c2)n1 [Example 334] | 0.085 |
| CCCc1cc(N2CCC[C@H]2CO)nc(Nc2cccc(C(F)(F)F)c2)n1 [Example 203] | 0.3 |
| CCCc1cc(N2CC[C@H](NC(C)=O)C2)nc(Nc2ccc(C)c(OC)c2)n1 [Example 279] | 0.078 |
| CCCc1cc(N2CCC[C@H]2CO)nc(Nc2ccc(C)c(Cl)c2)n1 [Example 206] | 0.16 |
| CCCc1cc(N2CCC[C@H]2COC)nc(Nc2ccc(F)c(C#N)c2)n1 [Example 43, (S)-2-fluoro-5-{4-[2-(methoxymethyl)pyrrolidin-1-yl]-6-propylpyrimidin-2-ylamino}benzonitrile] | 0.178 |

Further compounds by falling EC50, results first:

| EC50 [nM] | Compound |
| --- | --- |
| 0.07 | CCCc1cc(N2CC[C@H](NCCN)C2)nc(Nc2cccc(C#N)c2)n1 [Example 220] |
| 0.062 | CCCc1cc(N2CC[C@H](N)C2)nc(Nc2cccc(SC)c2)n1 [Example 345, (S)-4-(3-aminopyrrolidin-1-yl)-N-[3-(methylthio)phenyl]-6-propylpyrimidin-2-amine dihydrochloride] |
| 0.047 | CCCc1cc(N2CC[C@H](N)C2)nc(Nc2cccc(C#N)c2)n1 [Example 60, (S)-3-[4-(3-aminopyrrolidin-1-yl)-6-propylpyrimidin-2-ylamino]benzonitrile dihydrochloride] |
| 0.046 | CCCc1cc(N2CC[C@H](NCCOCc3ccccc3)C2)nc(Nc2cccc(C#N)c2)n1 [Example 145, (S)-3-(4-{3-[2-(benzyloxy)ethylamino]pyrrolidin-1-yl}-6-propylpyrimidin-2-ylamino)benzonitrile] |
| 0.045 | CCCc1cc(N2CC[C@H](NCCNC(=O)OC(C)(C)C)C2)nc(Nc2cccc(C#N)c2)n1 [Example 136, (S)-tert-butyl 2-{1-[2-(3-cyanophenylamino)-6-propylpyrimidin-4-yl]pyrrolidin-3-ylamino}ethylcarbamate] |
| 0.041 | CCCCc1cc(N2CC[C@H](NC(C)=O)C2)nc(Nc2ccc(F)c(C(F)(F)F)c2)n1 [Example 442] |
| 0.037 | CCCc1cc(N2CCCC2CO)nc(Nc2ccc3cc[nH]c3c2)n1 (stereo not shown) [Example 187] |
| 0.032 | CCCc1cc(N2CC[C@H](NC(=O)CO)C2)nc(Nc2ccc(C)c(Cl)c2)n1 [Example 480] |
| 0.029 | CCCc1cc(N2CCC[C@H]2CO)nc(Nc2ccc(F)c(C#N)c2)n1 [Example 214, (S)-2-fluoro-5-{4-[2-(hydroxymethyl)pyrrolidin-1-yl]-6-propylpyrimidin-2-ylamino}benzonitrile] |
| 0.025 | CCCc1cc(N2CCC[C@H]2C)nc(Nc2ccc(N)c(C#N)c2)n1 [Example 327] |
| 0.024 | CCCc1cc(N2CC[C@H](NC(=O)CN3CCCCC3)C2)nc(Nc2ccc(C)c(C#N)c2)n1 [Example 427] |
| 0.017 | CCCc1cc(N2CCC[C@H]2CO)nc(Nc2ccc(C)c(C#N)c2)n1 [Example 213] |
| 0.016 | CCCc1cc(N2CCC[C@H]2CO)nc(Nc2ccc(C)c([N+](=O)[O-])c2)n1 [Example 210, (S)-{1-[2-(4-methyl-3-nitrophenylamino)-6-propylpyrimidin-4-yl]pyrrolidin-2-yl}methanol] |
| 0.016 | CCCc1cc(N2CC[C@H](NCc3ccsc3)C2)nc(Nc2cccc(C#N)c2)n1 [Example 113, (S)-3-{4-propyl-6-[3-(thiophen-3-ylmethylamino)pyrrolidin-1-yl]pyrimidin-2-ylamino}benzonitrile] |
| 0.016 | CCCc1cc(N2CC[C@H](NC(C)=O)C2)nc(Nc2ccc(F)c([N+](=O)[O-])c2)n1 [Example 248, (S)—N-{1-[2-(4-fluoro-3-nitrophenylamino)-6-propylpyrimidin-4-yl]pyrrolidin-3-yl}acetamide] |
| 0.015 | CCCc1cc(N2CC[C@H](N)C2)nc(Nc2ccc(F)c(N)c2)n1 [Example 370, (S)—N^1-[4-(3-aminopyrrolidin-1-yl)-6-propylpyrimidin-2-yl]-4-fluorobenzene-1,3-diamine dihydrochloride] |
| 0.014 | CCCc1cc(N2CC[C@H](NCc3ccc(O)cc3)C2)nc(Nc2cccc(C#N)c2)n1 [Example 91, (S)-3-{4-[3-(4-hydroxybenzylamino)pyrrolidin-1-yl]-6-propylpyrimidin-2-ylamino}benzonitrile] |
| 0.012 | CCCc1cc(N2CC[C@H](NC)C2)nc(Nc2cccc(C#N)c2)n1 [Example 50, (S)-3-{4-[3-(methylamino)pyrrolidin-1-yl]-6-propylpyrimidin-2-ylamino}benzonitrile] |
| 0.011 | CCCCc1cc(N2CC[C@H](NC(C)=O)C2)nc(Nc2cccc(C#N)c2)n1 [Example 223] |
| 0.0092 | CCCc1cc(N2CC[C@H](N)C2)nc(Nc2ccc(Cl)c([N+](=O)[O-])c2)n1 [Example 344, (S)-4-(3-aminopyrrolidin-1-yl)-N-(4-chloro-3-nitrophenyl)-6-propylpyrimidin-2-amine dihydrochloride] |
| 0.0084 | CCCc1cc(N2CC[C@H](NCC(C)(C)C)C2)nc(Nc2ccc(C)c(C#N)c2)n1 [Example 423] |
| 0.0077 | CCCCc1cc(N2CC[C@H](NC(C)=O)C2)nc(Nc2ccc(N)c(C#N)c2)n1 [Example 446] |
| 0.0075 | CCCc1cc(N2CC[C@H](NC(=O)CO)C2)nc(Nc2ccc(C)c(C#N)c2)n1 [Example 472, (S)—N-{1-[2-(3-cyano-4-methylphenylamino)-6-propylpyrimidin-4-yl]pyrrolidin-3-yl}-2-hydroxyacetamide] |
| 0.0066 | CCCc1cc(N2CC[C@H](NC(=O)CO)C2)nc(Nc2cc(N)cc(C#N)c2)n1 [Example 474, (S)—N-{1-[2-(3-amino-5-cyanophenylamino)-6-propylpyrimidin-4-yl]pyrrolidin-3-yl}-2-hydroxyacetamide] |
| 0.0062 | CCCc1cc(N2CC[C@H](NC(C)CC)C2)nc(Nc2cccc(C#N)c2)n1 (stereo partly drawn) [Example 127, 3-{4-[(3S)-3-(sec-butylamino)pyrrolidin-1-yl]-6-propylpyrimidin-2-ylamino}benzonitrile] |
| 0.0046 | CCCc1cc(N2CC[C@H](NCC3CC3)C2)nc(Nc2ccc(Cl)c([N+](=O)[O-])c2)n1 [Example 372] |
| 0.0032 | CCCCc1cc(N2CC[C@H](NC)C2)nc(Nc2ccc(N)c([N+](=O)[O-])c2)n1 [Example 338] |
| 0.0026 | CCCCc1cc(N2CC[C@H](NCC)C2)nc(Nc2ccc(C)c([N+](=O)[O-])c2)n1 [Example 462] |
| 0.0025 | CCCCc1cc(N2CC[C@H](NCC3CC3)C2)nc(Nc2ccc(C)c(C#N)c2)n1 [Example 240] |
| 0.0017 | CCCCc1cc(N2CC[C@H](NCC)C2)nc(Nc2ccc(N)c(C#N)c2)n1 [Example 458] |
